According to US20150017156A1, “ESX-MEDIATED TRANSCRIPTION MODULATORS AND RELATED METHODS” (THE OHIO STATE UNIVERSITY, priority 2011, published 2015):
Like-named read-outs stand apart in the source and are kept apart here.

Columns and labels:
[1] = tested on: Her2 expression in SKBR3 cells; details: cited from earlier work
[2] = tested on: SKBR3 Her2-positive breast carcinoma cells; details: cited from earlier work
CAL27 HNSCC cells = assay: Xenograft model of HNSCC, CAL27 in athymic nude mice
CAL27 cells [3] = assay: Cell proliferation (CCK-8 reagent), CAL27; assay type: cell-based; details: Homo sapiens, read-out: IC50 for cell proliferation
Protocol: (§1) A. EGFR and Her2 levels. […] Cell lysates were prepared and determined for EGFR and Her2 protein levels by immunoblot analyses. B. Cell proliferation. […] (ESXm) for 24 hours. Cell proliferation was assessed using the CCK-8 reagent to detect metabolic active cells. Dose-response curves and IC50 values were generated using GraphPad Prism 4.0 (GraphPad Software, La Jolla, Calif.). […] C. Cell invasion. Cell invasion was determined as described from the cell invasion assay kit (Chemicon International, Temecula, Calif.). […] An aliquot (1×10^5 cells) of the prepared cell suspension was added to the top chamber and 10% FBS was added to the bottom chamber. After 24 hours, non-invading cells were gently removed from the interior of the inserts with a cotton-tipped swab. Invasive cells were stained and visualized. A representative field for each experimental condition is presented. D. Cell migration. Cell migration was determined using the wound healing assay. Cells were seeded and allowed to grow until confluence. […] A representative field for each experimental condition at 0 hour and 24 hours is presented.
(§2) Cell proliferation was assessed using the CCK-8 reagent to detect metabolic active cells. Dose-response curves and IC50 values were generated using GraphPad Prism 4.0 (GraphPad Software, La Jolla, Calif.).

SCC25 cells [4] = assay: Cell proliferation (CCK-8 reagent), SCC25; assay type: cell-based; details: Homo sapiens, read-out: IC50 for cell proliferation
Protocol: as §1, §2

CAL27 cells [5] = details: 12.5 μmol/L
Protocol: (§3) A. EGFR and Her2 levels. […] Cell lysates were prepared and determined for EGFR and Her2 protein levels by immunoblot analyses. B. Cell proliferation. […] Cell proliferation was assessed using the CCK-8 reagent to detect metabolic active cells. Dose-response curves and IC50 values were generated using GraphPad Prism 4.0 (GraphPad Software, La Jolla, Calif.). […] C. Cell invasion. Cell invasion was determined as described from the cell invasion assay kit (Chemicon International, Temecula, Calif.). […] An aliquot (1×10^5 cells) of the prepared cell suspension was added to the top chamber and 10% FBS was added to the bottom chamber. After 24 hours, non-invading cells were gently removed from the interior of the inserts with a cotton-tipped swab. Invasive cells were stained and visualized. A representative field for each experimental condition is presented. D. Cell migration. Cell migration was determined using the wound healing assay. Cells were seeded and allowed to grow until confluence. […] A representative field for each experimental condition at 0 hour and 24 hours is presented.

[6] = tested on: EGFR and Her2 levels in CAL27 cells; details: 24 hours, immunoblot
Protocol: as §3

[7] = tested on: EGFR and Her2 levels in SCC25 cells; details: 24 hours, immunoblot
Protocol: as §3

SCC25 cells [8] = details: 15 μmol/L
Protocol: as §3

[9] = Precipitation in cell culture media; assay type: physicochemical; details: higher concentrations
[10] = tested on: phosphorylated erbB2 levels in SkBr3 cells
Protocol: ErbB2 and p-erbB2 ELISA: ELISA assays were performed based on those published elsewhere.[4] […] After 24 hours, media was removed carefully and cells were fixed and permeabilized with cold (−20° C.) methanol. The cells were then washed twice with TBST, blocked for 2 hours at room temperature with superblock (TBST solution from Pierce), incubated with the primary antibody overnight at 4° C. (as a 1:500 solution in superblock). Cells were then washed twice more with TBST and incubate with secondary antibody for 2 hours at room temperature (as a 1:1000 solution in superblock). After being washed 3 times with TBST, Slow TMB (Pierce) was added to measure antibody levels in accordance with the manufacturer's instructions and the absorbance at 370 nm was measured. The cells were washed 3 more times with TBST and total protein levels were measured at 560 nm using BCA reagent (Pierce). […] The resulting ratios were then normalized to cells treated with DMSO.

Text for SkBr3 (erbB2+) cells: Isobolograms were generated by computing dose fractions directly from the IC50s. Dose fraction is defined as the dose of one component in a combination required to exert a given effect (usually IC50, as in this case) divided by the dose of that component in isolation required to exert the same effect. Thus each combination reported has two dose fraction measurements (eg. dose fraction it and dose fraction lapatinib) that define the combinations x/y coordinates on the isobologram.
Dose fraction of A for combination AB=IC50(A in AB)/IC50(A in isolation)
Dose fraction of B for combination AB=IC50(B in AB)/IC50(B in isolation)
The sum of these x/y coordinates are the combination index. By definition, the CI for either agent in isolation is 1. For the null hypothesis (in which both agents act as though they are equivalent doses of the same agent) the CI will be 1. For combinations where the CI<1, synergy is present.
CI(combination index)=dose fraction A+dose fraction B.
For the experiments used to generate dose-effect curves for the isobolograms and selectivity experiments, cells were plated at 3000 cells per well in 96 well plates. […] The day after the final treatment, cell viability was measured using WST-1 reagent (Roche) in accordance with the manufacturer's instructions. […]

Q: What does the source list for `Cc1ccc(S(=O)(=O)n2ccc3c(OCC(O)CN(CCCCCN)C(=O)N4CCC(C5CCN(C(=O)C67CC8CC(CC(C8)C6)C7)CC5)CC4)cccc32)cc1` (stereo not shown) [Wrenchnolol, wrenchnolol, reference compound]?
A: Her2 expression [1]: decreased Her2 expression; cell proliferation [2]: inhibited cell proliferation

Q: With `CN(C)C/C=C/C(=O)Nc1cc2c(Nc3ccc(F)c(Cl)c3)ncnc2cc1O[C@H]1CCOC1` [afatinib] as the molecule, how does the mean tumor volume (CAL27 HNSCC cells) read?
A: 43 mm^3

Q: What about the “mean tumor volume, single-agent afatinib arm compared to the combination treatment arm” value (CAL27 HNSCC cells) of the same molecule?
A: 2.1 fold

Q: With `CC(C)C[C@]1(CCO)C[C@H](CN=[N+]=[N-])ON1Cc1ccc(-c2ccccc2)cc1` [biphenyl isoxazolidine] as the molecule, how does the IC50 (CAL27 cells [3]; CAL-27, 24 h) read?
A: 46.8 µM

Q: And the IC50 (SCC25 cells [4]; SCC-25, 24 h)?
A: 50.3 µM

Q: What about the Cell invasion (CAL27 cells [5]) of the same molecule?
A: dramatically suppressed

Q: What about the Cell migration (CAL27 cells [5]) of the same molecule?
A: dramatically suppressed

Q: And the “EGFR and Her2 levels” value [6]?
A: dose-dependent decrease

Q: What about the “EGFR and Her2 levels” value [7] of the same molecule?
A: dose-dependent decrease

Q: What about the Cell invasion (SCC25 cells [8]) of the same molecule?
A: dramatically suppressed

Q: What about the Cell migration (SCC25 cells [8]) of the same molecule?
A: dramatically suppressed

Q: What about the Her2 expression [1] of the same molecule?
A: decreased Her2 expression

Q: And the cell proliferation [2]?
A: inhibited cell proliferation

Q: For `C#Cc1cccc(Nc2ncnc3cc(OCCOC)c(OCCOC)cc23)c1` [erlotinib], which “precipitation out of cell culture media” value [9] is on record?
A: precipitate out of cell culture media at higher concentrations

Q: With `CS(=O)(=O)CCNCc1ccc(-c2ccc3ncnc(Nc4ccc(OCc5cccc(F)c5)c(Cl)c4)c3c2)o1` [lapatinib, reference compound] as the molecule, how does the IC50 (CAL27 cells [3]; CAL-27, CAL27 cells, 24 hours of treatment, single agent) read?
A: 11.8 µM

Q: What about the IC50 (SCC25 cells [4]; SCC-25, SCC25 cells, 24 hours of treatment, single agent) of the same molecule?
A: 11.9 µM

Q: And the IC50 (SkBr3 (erbB2+) cells)?
A: 0.048 ± 0.017 µM

Q: And the “effects on erbB2 and phosphorylated erbB2 levels as single agents” value [10]?
A: moderate effects
